Columns and labels:
Assay type in all cases: in vivo
Conditions in all cases: 250 g/ha, evaluated after 13 days, five-point scale
[1] = test system: Setaria faberi (SETFA); experiment: Post-emergence herbicide glasshouse test
Procedure, shortened: (§1)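 Spray at 250 g/ha (unless stated), acetone/water 50:50 + 0.5% Tween 20; pre-em 1 d post-sowing, post-em after 8 d growth. Glasshouse 24/16 °C, 14 h light, 65% RH, watered twice daily. % damage read at 13 d, scored 1 (0–20%) to 5 (81–100%).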

[2] = test system: Amaranthus retoflexus (AMARE); experiment: Post-emergence herbicide glasshouse test
Procedure, shortened: as §1

[3] = test system: Amaranthus palmeri (AMAPA); experiment: Post-emergence herbicide glasshouse test
Procedure, shortened: as §1

[4] = test system: Ipomoea hederacea (IPOHE); experiment: Post-emergence herbicide glasshouse test
Procedure, shortened: as §1

[5] = test system: Echinochloa crus-galli (ECHCG); experiment: Post-emergence herbicide glasshouse test
Procedure, shortened: as §1

[6] = test system: Setaria faberi (SETFA); experiment: Pre-emergence herbicide glasshouse test
Procedure, shortened: as §1

[7] = test system: Amaranthus retoflexus (AMARE); experiment: Pre-emergence herbicide glasshouse test
Procedure, shortened: as §1

[8] = test system: Amaranthus palmeri (AMAPA); experiment: Pre-emergence herbicide glasshouse test
Procedure, shortened: as §1

[9] = test system: Ipomoea hederacea (IPOHE); experiment: Pre-emergence herbicide glasshouse test
Procedure, shortened: as §1

[10] = test system: Echinochloa crus-galli (ECHCG); experiment: Pre-emergence herbicide glasshouse test
Procedure, shortened: as §1

Row | Structure (SMILES) | percentage damage caused to the plant, SETFA [1] | percentage damage caused to the plant, AMARE [2] | percentage damage caused to the plant, AMAPA [3] | percentage damage caused to the plant, IPOHE [4] | percentage damage caused to the plant, ECHCG [5] | percentage damage caused to the plant, SETFA [6] | percentage damage caused to the plant, AMARE [7] | percentage damage caused to the plant, AMAPA [8] | percentage damage caused to the plant, IPOHE [9] | percentage damage caused to the plant, ECHCG [10]
1 | FC(F)(F)c1nc(CCC2CCOC2)c2c(Oc3ncc(Cl)cn3)cccc2n1 (centres unmarked) [Compound 1.031] | 5 (5=81-100%) | 5 (5=81-100%) | 4 (4=61-80%) | 5 (5=81-100%) | 5 (5=81-100%) | 5 (5=81-100%) | 5 (5=81-100%) | 5 (5=81-100%) | 5 (5=81-100%) | 5 (5=81-100%)
2 | FC(F)(F)c1nc(CCC2CC2)c2c(Oc3ncc(Cl)cn3)cccc2n1 [Compound 1.032] | 5 (5=81-100%) | 5 (5=81-100%) | 4 (4=61-80%) | 4 (4=61-80%) | 5 (5=81-100%) | 5 (5=81-100%) | 5 (5=81-100%) | 5 (5=81-100%) | 1 (1=0-20%) | 5 (5=81-100%)
3 | FC(F)(F)c1nc(CCC2COC2)c2c(Oc3ncc(Cl)cn3)cccc2n1 [Compound 1.033] | 5 (5=81-100%) | 4 (4=61-80%) | 2 (2=21-40%) | 5 (5=81-100%) | 5 (5=81-100%) | 5 (5=81-100%) | 4 (4=61-80%) | 5 (5=81-100%) | 5 (5=81-100%) | 5 (5=81-100%)
4 | CC(=O)N1CCC(CCc2nc(C(F)(F)F)nc3cccc(Oc4ncc(Cl)cn4)c23)CC1 [Compound 1.034] | 5 (5=81-100%) | 5 (5=81-100%) | 4 (4=61-80%) | 2 (2=21-40%) | 4 (4=61-80%) | 4 (4=61-80%) | 2 (2=21-40%) | 3 (3=41-60%) | 1 (1=0-20%) | 2 (2=21-40%)
5 | FC(F)c1cc(-c2nc(C(F)(F)F)nc3cccc(Oc4ncc(Cl)cn4)c23)on1 [Compound 1.035, 5-[5-(5-chloropyrimidin-2-yl)oxy-2-(trifluoromethyl)quinazolin-4-yl]-3-(difluoromethyl)isoxazole] | 2 (2=21-40%) | 4 (4=61-80%) | 4 (4=61-80%) | 1 (1=0-20%) | 1 (1=0-20%) | 3 (3=41-60%) | 5 (5=81-100%) | 5 (5=81-100%) | 1 (1=0-20%) | 2 (2=21-40%)
6 | O=C(c1ccncc1)c1nc(C(F)(F)F)nc2cccc(Oc3ncc(Cl)cn3)c12 [Compound 1.036] | 1 (1=0-20%) | 3 (3=41-60%) | 3 (3=41-60%) | 1 (1=0-20%) | 1 (1=0-20%) | 3 (3=41-60%) | 3 (3=41-60%) | 4 (4=61-80%) | 1 (1=0-20%) | 3 (3=41-60%)
7 | OCC(O)CCc1nc(C(F)(F)F)nc2cccc(Oc3ncc(Cl)cn3)c12 (centres unmarked) [Compound 1.037, 4-[5-(5-chloropyrimidin-2-yl)oxy-2-(trifluoromethyl)quinazolin-4-yl]butane-1,2-diol] | 1 (1=0-20%) | 3 (3=41-60%) | 3 (3=41-60%) | 1 (1=0-20%) | 1 (1=0-20%) | 1 (1=0-20%) | 1 (1=0-20%) | 1 (1=0-20%) | 1 (1=0-20%) | 1 (1=0-20%)
8 | O=CCCc1nc(C(F)(F)F)nc2cccc(Oc3ncc(Cl)cn3)c12 [Compound 1.038, 3-[5-(5-chloropyrimidin-2-yl)oxy-2-(trifluoromethyl)quinazolin-4-yl]propanal] | 1 (1=0-20%) | 4 (4=61-80%) | 3 (3=41-60%) | 3 (3=41-60%) | 1 (1=0-20%) | 1 (1=0-20%) | 2 (2=21-40%) | 1 (1=0-20%) | 1 (1=0-20%) | 1 (1=0-20%)
9 | OCCCc1nc(C(F)(F)F)nc2cccc(Oc3ncc(Cl)cn3)c12 [Compound 1.039, 3-[5-(5-chloropyrimidin-2-yl)oxy-2-(trifluoromethyl)quinazolin-4-yl]propan-1-ol] | 1 (1=0-20%) | 4 (4=61-80%) | 3 (3=41-60%) | 3 (3=41-60%) | 1 (1=0-20%) | 2 (2=21-40%) | 3 (3=41-60%) | 2 (2=21-40%) | 1 (1=0-20%) | 2 (2=21-40%)
10 | FC(F)(F)c1nc(C2CC2)c2c(Oc3ncc(Cl)cn3)cccc2n1 [Compound 1.041, 5-(5-chloropyrimidin-2-yl)oxy-4-cyclopropyl-2-(trifluoromethyl)quinazoline] | 5 (5=81-100%) | 5 (5=81-100%) | 5 (5=81-100%) | 2 (2=21-40%) | 3 (3=41-60%) | 5 (5=81-100%) | 2 (2=21-40%) | 5 (5=81-100%) | 1 (1=0-20%) | 3 (3=41-60%)
11 | FC(F)(F)c1nc(CCC2CCCCC2)c2c(Oc3ncc(Cl)cn3)cccc2n1 [Compound 1.045] | 2 (2=21-40%) | 4 (4=61-80%) | 4 (4=61-80%) | 3 (3=41-60%) | 2 (2=21-40%) | 4 (4=61-80%) | 3 (3=41-60%) | 5 (5=81-100%) | 1 (1=0-20%) | 4 (4=61-80%)
